According to the supplement of paper PMC10290057:
Where a name gives a salt, the structure may show the parent alone.

Tested on: HCT116
Test: efficacy (fitted maximal change in viability relative to DMSO control); higher = less cytotoxic (negative = loss of viability)
Settings: 48 h
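Note: Luminescence-based viability readout, five doses per compound, normalized against on-plate DMSO and empty-well controls, followed by dose-response curve fitting for every drug.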

## CC[S+](=O)([O-])N1CCN(c2ccc(Nc3ncc(C(N)=O)c(NC4CC4)n3)cc2)CC1 [Cerdulatinib]
  efficacy: -88.9%

## O=C(O)CCC1CCC(c2cc(F)ccc2F)([S+](=O)([O-])c2ccc(Cl)cc2)CC1 (stereo not given) [MK-0752]
  efficacy: -19%

## CC(=O)c1c(O)c(C)c(O)c(Cc2c(O)c3c(c(C(=O)/C=C/c4ccccc4)c2O)OC(C)(C)C=C3)c1O [Rottlerin]
  efficacy: -8.89%

## COC1(C[S+]([O-])c2ccccc2)CCN(CCc2c[nH]c3ccc(F)cc23)CC1 (stereo not given)
  efficacy: -18.2%

## COc1ccc2cc(OCC3(C(=O)O)CN(C(=O)c4ccc(F)cc4)C3)ccc2c1
  efficacy: -11.6%

## N#CN1CCC[C@@H](n2nc(-c3ccc(Oc4ccc(F)cc4F)cc3)c(C(N)=O)c2N)C1
  efficacy: -38.1%

## Cc1cc(NC(=O)Nc2ccc(N(C)C)cc2)c2cc(F)cc(F)c2n1
  efficacy: -37.6%

## O=C(O)c1nn(Cc2ccc(Cl)cc2Cl)c2ccccc12 [Lonidamine]
  efficacy: -7.79%

## Cn1cc(/C=C2\C(=O)Nc3cccnc32)c2ccccc21
  efficacy: -35.8%

## CC(C)C[C@H](CC(=O)O)C(=O)N[C@@H](Cc1c[nH]c2ccccc12)C(=O)N[C@@H](C)c1ccccc1 [GM-1489]
  efficacy: 10.9%

## Cc1ccc(C(=O)c2cc(O)c(O)c([N+](=O)[O-])c2)cc1 [Tolcapone]
  efficacy: -83.1%

## CC(C)[S+](=O)([O-])c1ccc2nccc(Nc3ccc4scnc4c3)c2c1 [GSK-872]
  efficacy: -37.8%

## CNC(=O)c1c(-c2ccc(F)cc2)oc2cc(N(CCO)[S+](C)(=O)[O-])c(C3CC3)cc12 [Nesbuvir]
  efficacy: -8.31%

## Cc1cnc(NC(=O)c2cc(Oc3cnc(C(=O)N(C)C)nc3)c3cc(C)oc3c2)cn1
  efficacy: -6.07%

## CCC(C)CCCCC(=O)N[C@@H](CCN)C(=O)NC(C(=O)N[C@H](CCN)C(=O)N[C@@H]1CCNC(=O)C([C@@H](C)O)NC(=O)[C@@H](CCN)NC(=O)[C@@H](CCN)NC(=O)[C@@H](CC(C)C)NC(=O)[C@H](Cc2ccccc2)NC(=O)[C@H](CCN)NC1=O)[C@@H](C)O (stereo not given in full) [Polymyxin B sulphate]
  efficacy: -10.6%

## O=S(=O)([O-])CCS [Mesna]
  efficacy: -8.13%

## CC[C@H](NC1=C2N=C[NH]C2=NC=N1)C/3=N/C4=C(C(=CC=C4)F)C(=O)N3C5=CC=CC=C5 [Idelalisib]
  efficacy: -25.3%

## CC(C)(C)c1cc(C(=O)O)c(NC(=O)Nc2ccc3[nH]ncc3c2)s1 [S6K-18]
  efficacy: -16.6%

## N=C(N)Nc1ccc(C(=O)Oc2ccc3cc(C(=N)N)ccc3c2)cc1 [Nafamostat mesilate]
  efficacy: -24.8%

## O=C(CCc1ccc(O)cc1)c1c(O)cc(O)cc1O [Phloretin]
  efficacy: 6.68%

## CCC(C)N(C)C(=O)c1cc2ccccc2c(-c2ccccc2Cl)n1 (stereo not given)
  efficacy: -46.4%

## NC(=O)c1ncn([C@@H]2O[C@H](CO)[C@@H](O)[C@H]2O)n1 [Ribavirin]
  efficacy: 18.5%

## CCOC(=O)C(C#N)C\1C2=CC(=CC=C2O\C(=C1C(=O)OCC)N)Br (stereo not given) [HA-14-1]
  efficacy: -8.15%

## C[C@H]1CN(C[C@@H](C)N1)C2=C(F)C3=C(C(=C2F)N)C(=O)\C(=C/N3C4CC4)C(O)=O [Sparfloxacin]
  efficacy: -10.7%

## C[C@](Cc1c[nH]c2ccccc12)(NC(=O)OC1C2CC3CC(C2)CC1C3)C(=O)NC[C@H](NC(=O)CCC(=O)O)c1ccccc1 (stereo not given in full)
  efficacy: 9.82%

## C/C(O)=C(\C#N)C(=O)Nc1ccc(C(F)(F)F)cc1 [Teriflunomide]
  efficacy: -52.2%

## CC(C)(C)[S+](=O)([O-])c1ccc2nccc(Nc3n[nH]c4ccc(F)cc34)c2c1 [GSK-583]
  efficacy: -39.1%

## O=c1oc2cc(O)ccc2s1 [Tioxolone]
  efficacy: -6.66%

## COc1ccc2[nH]c([S+]([O-])Cc3ncc(C)c(OC)c3C)nc2n1 (stereo not given) [Tenatoprazole]
  efficacy: -10.8%

## COc1ccc2[nH]c([S+]([O-])Cc3ncc(C)c(OC)c3C)nc2c1 (stereo not given) [Omeprazole]
  efficacy: -17.5%

## CCCN(CCC)C(=O)C(CCC(=O)O)NC(=O)c1ccccc1 (stereo not given) [Proglumide]
  efficacy: -18.3%

## C[N]1N=CC=C1C/2=C(\C)N(C(=O)C(=C2)/C(=O)NCC3=NC=C(C=C3)[S+](C)([O-])=O)C4=CC=CC(=C4)C(F)(F)F [AZD9668]
  efficacy: 12.5%

## Cc1ccc([S+](=O)([O-])Nc2nc3ccccc3nc2Nc2ccc3nsnc3c2)cc1 [XL-147]
  efficacy: -12%

## O=C1Nc2ccccc2/C1=C1\Nc2ccccc2C1=O [Indirubin]
  efficacy: -9.8%

## CCOC(=O)C1=CCCCC1[S+](=O)([O-])Nc1ccc(F)cc1Cl (stereo not given) [TAK-242]
  efficacy: -34.7%

## CN1C(=O)C(Cc2c[nH]c3ccccc23)NC1=S (stereo not given) [Necrostatin-1]
  efficacy: -7.49%

## CC(=O)N[C@H]1[C@H](O[C@@H]2c3ccc(c(Cl)c3)Oc3cc4cc(c3O[C@@H]3O[C@H](CO)[C@@H](O)[C@H](O)[C@H]3NC(=O)CCCCCCCC(C)C)Oc3ccc(cc3Cl)C[C@H]3NC(=O)[C@H](N)c5ccc(O)c(c5)Oc5cc(O)cc(c5)[C@H](NC3=O)C(=O)N[C@H]4C(=O)N[C@H]3C(=O)N[C@@H]2C(=O)N[C@@H](C(=O)O)c2cc(O)cc(O[C@H]4O[C@H](CO)[C@@H](O)[C@H](O)[C@@H]4O)c2-c2cc3ccc2O)O[C@H](CO)[C@@H](O)[C@@H]1O [Teicoplanin]
  efficacy: -14.5%

## COc1ccc2[nH]cc(CCNC(C)=O)c2c1 [Melatonin]
  efficacy: -10.4%

## CC(C)CC(=O)N[C@H](C(=O)N[C@H](C(=O)N[C@@H](CC(C)C)[C@@H](O)CC(=O)N[C@@H](C)C(=O)N[C@@H](CC(C)C)[C@@H](O)CC(=O)O)C(C)C)C(C)C [Pepstatin]
  efficacy: -6.41%

## CC1=CC(=O)c2ccccc2C1=O [Menadione]
  efficacy: -10.7%

## C#CCN[C@@H]1CCc2ccccc21 [Rasagiline mesylate]
  efficacy: -9.57%

## COCC1(CO)C(=O)C2CCN1CC2 (stereo not given) [APR-246]
  efficacy: -7.36%

## COc1cc2c(NC3CCN(C)CC3)nc(N3CCCN(C)CC3)nc2cc1OCCCN(C)C [UNC-0224]
  efficacy: -57.9%

## C[C@@H]1C(=O)OC2[C@H](O)[C@]34[C@H]5C[C@@H](C(C)(C)C)[C@]36[C@@H](OC(=O)[C@@H]6O)O[C@@]4(C(=O)O5)[C@]21O (stereo not given in full) [Ginkgolide B]
  efficacy: -9.74%

## COC/1=C(\CNC(=O)C2=C(C)[N]([C@H](C)C3CCN(CC3)CC(F)(F)F)C4=C2C=CC=C4)C(=O)N/C(=C1)C [CPI-1205]
  efficacy: -27.1%

## CN(CC(=O)N(Cc1ccc(C2CCCCC2)cc1)c1ccc(C(=O)O)c(O)c1)[S+](=O)([O-])c1c(F)c(F)c(F)c(F)c1F [BP-1-102]
  efficacy: -10.2%

## C[C@H](NC(=O)Cc1cc(F)cc(F)c1)C(=O)N[C@@H]1C(=O)N(C)c2ccccc2-c2ccccc21
  efficacy: -23.7%

## CN(CCOc1ccc(C[C@H](Nc2ccccc2C(=O)c2ccccc2)C(=O)O)cc1)c1ccccn1 [GW-1929]
  efficacy: -7.57%

## CC[C@@]1(O)C(=O)OC\C2=C1\C=C\3N(CC4=C3N=C5C=CC=CC5=C4)C2=O [Camptothecin]
  efficacy: -65.5%

## C[C@@H]1CC[C@@]2(CC[C@]3(C)\C(=C/C[C@@H]4[C@@]5(C)CC[C@H](O)C(C)(C)[C@@H]5CC[C@@]34C)[C@@H]2[C@H]1C)C(O)=O [Ursolic acid]
  efficacy: 6.32%
